Test results as given in PMC9118553, “In Vivo Bioconcentration of 10 Anionic Surfactants in Rainbow Trout Explained by In Vitro Data on Partitioning and S9 Clearance” (Environmental Science & Technology, 2022).
Where “and” joins values, the source holds several entries; their conditions need not be identical. Equal entries are not always repeated. Marks after values point to notes of the source that are not given here.

Tests used:
rainbow trout = experiment: In vivo bioconcentration experiment with a mixture of anionic surfactants, flow-through aquaria, 10 °C, pH 7.8; settings: for Concentration in fish: individual fish;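 on Uptake rate constant kU: L kg-1 h-1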
Method: The bioconcentration of a mixture of 10 anionic surfactants was measured in rainbow trout in water at pH 7.8. […] The experiment was conducted in flow-through aquaria with juvenile rainbow trout at 10 °C. Ethical approval for the experiments was obtained from Stockholms […] (decision 9967-2017). The fish, fish housing, fish handling, and procedure for introducing the mixture of […] chemicals were very similar to our previous study with cationic surfactants;[5] details are provided in Text S1. The experiment consisted of a 4-day exposure phase and a 7-day depuration phase. […] Water samples were collected and fish were sacrificed according to the schedule in Table S4. The water samples were collected just prior to the daily removal of feces from the aquarium. Triplicate samples were taken at each time point. […] The water/methanol mixture was analyzed using liquid chromatography-mass spectrometry (LC-MS)/MS as described below for fish. At each fish sampling, five fish were sacrificed. Following stunning and severance of the spinal cord, the whole fish were placed in a polyethylene bag, weighed, and immediately frozen at -20 °C. The weight of the individual fish at sacrifice was 24.0 ± 5.6 g. Three of the five fish from each time point were prioritized for analysis based on proximity to the median fish weight. Each fish was […] homogenized with an Ultra-turrax dispersing device. […] This mixture was homogenized in a bullet blender for 5 min and then placed in an ultrasound bath at 45 °C for 15 min. Following centrifugation for 15 min@3200 RCF, the supernatant was decanted and the extraction was repeated. The extracts were combined. For instrumental analysis, 5 μL of the fish extract or 60 μL of the water/methanol mixture (water samples) was separated on an Acquity UPLC BEH C18 column fitted with a BEH C18 pre-column and analyzed on a TSQ Quantiva triple quadrupole mass spectrometer. The mobile phase was methanol (10 mM ammonium acetate) and Milli-Q-filtered water (10 mM ammonium acetate) (see Table S5 for the liquid chromatography program). To avoid detergent blank peaks originating from cleaning mobile phase bottles, the methanol was prepared directly in the solvent bottle as delivered and Milli-Q was tapped into an empty methanol bottle. Furthermore, a guard column was fitted between the mobile phase and the autosampler to prevent background contamination from disturbing the analysis. All analytes were quantified against the BEHP internal standard, as it gave better reproducibility. […] The central goal of the analysis was to estimate kU and kT as well as the BCF (=kU/kT) from measurements of surfactant concentration in fish and water samples collected at different time points of the experiment. For the fish, only those time points were included for which CF(measured) was above the limit of quantitation (LOQ) in all three fish (data below the LOQ will have a positive bias; including them would result in a negative bias in kT). In this analysis, there exist two sources of uncertainty: first, uncertainty in the actual concentration in water CW at the time of sample collection and second, variability in the concentration in fish around the (expected) surfactant concentrations in fish assumed to follow model (1). We therefore set up a model in which we considered uncertainty in both water and fish measurements simultaneously by assuming a parametric model for the surfactant concentration in the water over time (either linear or quadratic) and accounted for the uncertainty in the corresponding parameters of the water model during the estimation of kU and kT. This was done in a joint Bayesian model that we estimated via Hamiltonian Monte Carlo. […]

[1] = Baseline screening BCF (0.0125 DMLW, equilibrium partitioning, no biotransformation)
Source text: Recently, the concept of a baseline screening BCF was introduced for surfactants, based on equilibrium partitioning assuming no biotransformation.[19] The baseline screening BCF for the study chemicals exceeded the measured BCF by 1–2.5 orders of magnitude (Table S16), providing further evidence that biotransformation is an important factor influencing the elimination—and thereby the BCF—of the anionic surfactants studied here in rainbow trout. The deviation of PFOA and PFOS from the regression between BCF and DMLW (Figure 1, upper panel) is attributable to them not being biotransformed.
Table S16: Comparison of the BCF (determined with the measured concentrations in water) and the baseline screening BCF (determined as 0.0125 DMLWa)
CHEMICAL Log BCF Log baseline BCF Log difference […]
a Droge, S. T. J.; Scherpenisse, P.; Arnot, J. A.; Armitage, J. M.; McLachlan, M. S.; Nichols, J.; von der Ohe, P.; Bonnell, M.; Hodges, G. Screening the baseline fish bioconcentration potential of various types of surfactants using phospholipid binding data. Environ. Sci.: Processes Impacts

[2] = cited from earlier work
[3] = determined using nominal concentrations in water
[4] = from measured concentrations in water, Bayesian estimate, 95% credible interval in brackets
[5] = measured concentrations in water, simpler estimation method (Text S3), 95% confidence intervals in brackets

BCF (rainbow trout; [3]): 31 L kg-1 ww | Elimination rate constant kT (rainbow trout; [3]): 0.074 h⁻¹ | Uptake rate constant kU (rainbow trout; [3]): 2.29 L/kg/h | Log BCF (rainbow trout; determined with measured concentrations in water): 1.53 L kg-1 ww | Concentration in fish (rainbow trout; elimination phase, 128 h): 21 ng g-1 ww (2×) and 29 ng g-1 ww | Concentration in fish (rainbow trout; exposure phase, 24 h): 255 ng g-1 ww (2×) and 188 ng g-1 ww | Elimination rate constant kT (rainbow trout; [4]): 0.048 (0.043–0.053) h^–1 | Uptake rate constant kU (rainbow trout; [4]): 1.62 (1.38–1.91) L kg^–1 ww h^–1 | diffusion coefficient (D) in the epithelial membrane of the gills (rainbow trout; in vivo): 3.9 × 10^–8 m h^–1 | BCF (kinetic) (rainbow trout; kinetic BCF from measured concentrations in water, 95% credible interval in brackets): 34 (29–40) L kg^–1 ww | BCF (rainbow trout; [5]): 31 (16) L kg-1 ww | Elimination rate constant kT (rainbow trout; [5]): 0.053 (7) h-1 | Uptake rate constant kU (rainbow trout; [5]): 1.64 (15) L kg-1 ww h-1 | BCF (rainbow trout; own values): 34 L kg^–1 | Log difference (baseline BCF vs BCF) [1]: 1.78 L kg-1 ww | Log baseline BCF ([1]; determined as 0.0125 DMLW): 3.31 L kg-1 ww
SMILES: CCCCCCCCCCCCCOS(=O)(=O)O [C13SO4, tridecylsulfate]
Concentration in fish (rainbow trout; elimination phase, 97 h): 99 ng g-1 ww and 120 ng g-1 ww and 148 ng g-1 ww | Concentration in fish (rainbow trout; elimination phase, 98 h): 111 ng g-1 ww and 104 ng g-1 ww and 80 ng g-1 ww | Concentration in fish (rainbow trout; elimination phase, 100 h): 104 ng g-1 ww and 78 ng g-1 ww and 80 ng g-1 ww | Concentration in fish (rainbow trout; elimination phase, 103 h): 58 ng g-1 ww and 80 ng g-1 ww and 82 ng g-1 ww | Concentration in fish (rainbow trout; elimination phase, 120 h): 32 ng g-1 ww and 40 ng g-1 ww and 25 ng g-1 ww | Concentration in fish (rainbow trout; elimination phase, 144 h): 14.4 ng g-1 ww and 11.1 ng g-1 ww and 13.5 ng g-1 ww | Concentration in fish (rainbow trout; elimination phase, 168 h): 12.9 ng g-1 ww and 6.4 ng g-1 ww and 7.3 ng g-1 ww | Concentration in fish (rainbow trout; elimination phase, 192 h): 4.0 ng g-1 ww and 4.7 ng g-1 ww and 3.9 ng g-1 ww | Concentration in fish (rainbow trout; elimination phase, 264 h): 3.8 ng g-1 ww and 2.1 ng g-1 ww and 1.7 ng g-1 ww | Concentration in fish (rainbow trout; exposure phase, 1 h): 34 ng g-1 ww and 28 ng g-1 ww and 54 ng g-1 ww | Concentration in fish (rainbow trout; exposure phase, 2 h): 40 ng g-1 ww and 42 ng g-1 ww and 27 ng g-1 ww | Concentration in fish (rainbow trout; exposure phase, 3 h): 61 ng g-1 ww and 67 ng g-1 ww and 60 ng g-1 ww | Concentration in fish (rainbow trout; exposure phase, 4 h): 88 ng g-1 ww and 108 ng g-1 ww and 187 ng g-1 ww | Concentration in fish (rainbow trout; exposure phase, 6 h): 139 ng g-1 ww and 132 ng g-1 ww and 97 ng g-1 ww | Concentration in fish (rainbow trout; exposure phase, 48 h): 140 ng g-1 ww and 234 ng g-1 ww and 190 ng g-1 ww | Concentration in fish (rainbow trout; exposure phase, 72 h): 201 ng g-1 ww and 154 ng g-1 ww and 128 ng g-1 ww | Concentration in fish (rainbow trout; exposure phase, 96 h): 175 ng g-1 ww and 150 ng g-1 ww and 275 ng g-1 ww | log DMW, membrane-water distribution ratio ([2]; marked * = measured, used for IVIVE, same values as Table 3): 5.21 | log DMLW ([2]; measurement from Droge): 5.21 ^e L kg^–1
